Measured values published in the supplement of paper PMC4862054.
Values joined by “and” are separate entries in the source; they are usually repeats but may differ in a detail not shown here. Equal entries are not always repeated.

How the values were obtained:
Conditions in all cases: incubation time: 72 h
BT-474 = assay: drug sensitivity score (DSS), CellTiter-Blue viability (DSS (AUC-based score)); higher = stronger viability inhibition; extreme values may be limits of the assay
Experimental: (§1)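 DSRT with the CellTiter-Blue (resazurin reduction) viability readout, fluorescence 560/590 nm, 72 h incubation. Plates were normalised to DMSO and benzethonium chloride controls. DSS is computed from the area under the fitted dose-response curve (5 or 9 concentrations).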

BT-549 = assay: as above
Experimental: as §1

CAL-120 [1] = assay: as above
Experimental: as §1

CAL-148 = assay: as above
Experimental: as §1

CAL-51 = assay: as above
Experimental: as §1

CAL-85-1 = assay: as above
Experimental: as §1

DU-4475 = assay: as above
Experimental: as §1

HCC1143 = assay: as above
Experimental: as §1

HCC1599 = assay: as above
Experimental: as §1

HCC1937 [2] = assay: as above
Experimental: as §1

HDQ-P1 = assay: as above
Experimental: as §1

Hs578T = assay: as above
Experimental: as §1

MDA-MB-231 = assay: as above
Experimental: as §1

MDA-MB-436 = assay: as above
Experimental: as §1

MDA-MB-453 = assay: as above
Experimental: as §1

MDA-MB-468 = assay: as above
Experimental: as §1

MFM-223 = assay: as above
Experimental: as §1

SK-BR-3 = assay: as above
Experimental: as §1

CAL-120 [3] = assay: drug sensitivity score (DSS), CellTiter-Glo (DSS (AUC-based score)); higher = stronger drug effect (viability inhibition or cytotoxicity); extreme values may be limits of the assay
Summary of the method: (§2)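 The drug sensitivity score was computed from the area under the fitted dose-response curve. Breast cancer cell lines in 20 µl suspension went into 384-well plates holding compound at 5 concentrations (10-fold steps over a 10,000-fold, compound-specific range) for 72 h of incubation. CellTox Green fluorescence (485/520 nm) was read before CellTiter-Glo luminescence, the latter after 10 min at room temperature, and each plate was normalised to 0.1 % DMSO and a positive kill control.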

HCC1937 [4] = assay: as above
Summary of the method: as §2

| SMILES | drug sensitivity score (BT-474) | drug sensitivity score (BT-549) | drug sensitivity score (CAL-120 [1]) | drug sensitivity score (CAL-148) | drug sensitivity score (CAL-51) | drug sensitivity score (CAL-85-1) | drug sensitivity score (DU-4475) | drug sensitivity score (HCC1143) | drug sensitivity score (HCC1599) | drug sensitivity score (HCC1937 [2]) | drug sensitivity score (HDQ-P1) | drug sensitivity score (Hs578T) | drug sensitivity score (MDA-MB-231) | drug sensitivity score (MDA-MB-436) | drug sensitivity score (MDA-MB-453) | drug sensitivity score (MDA-MB-468) | drug sensitivity score (MFM-223) | drug sensitivity score (SK-BR-3) | drug sensitivity score (CAL-120 [3]) | drug sensitivity score (HCC1937 [4]) |
| --- | --- | --- | --- | --- | --- | --- | --- | --- | --- | --- | --- | --- | --- | --- | --- | --- | --- | --- | --- | --- |
| COc1ccc(-c2cc3c(C)nc(N)nc3n([C@H]3CC[C@H](OCCO)CC3)c2=O)cn1 | 19.6 | 19.1 | 17.7 | 18.3 | 21.2 | 16.7 | 13.7 | 13.8 | 16.2 | 18.2 | 22.5 | 20.1 | 19.9 | 17.9 | 24.6 | 17.2 | 19.1 | 24.9 | 17.1 | 15.1 |
| Cc1cccc(-c2nn3c(c2-c2ccnc4ccc(C(N)=O)cc24)CCC3)n1 | 0 | 0 | 0 | 0 | 0 | 0 | 0 | 0 | 0 | 0 | 0 | 0 | 0 | 0 | 0 | 0 | 0 | 0 |  |  |
| Cn1cc(CNCC2CCN(c3ncc(C(=O)NO)cn3)CC2)c2ccccc21 | 19.9 | 8.2 | 20.2 | 22.6 | 13.7 | 19.1 | 21.1 | 18.9 | 16.5 | 16.5 | 16.5 | 13.1 | 15 | 5.46 | 27.8 | 14.1 | 14.9 | 25.8 |  |  |
| O=C(NC[C@H](O)CO)c1ccncc1Nc1ccc(I)cc1F | 0 | 0 | 7.78 | 3.49 | 3.9 | 6.9 | 35.2 | 13.8 | 4.05 | 0 | 10.3 | 0 | 21.9 | 0 | 4.94 | 0 | 0 | 0 |  |  |
| Nc1nc(=O)c2c([nH]1)NCC(CNc1ccc(C(=O)N[C@@H](CCC(=O)O)C(=O)O)cc1)N2C=O (mixture of isomers) [Folinic acid] | 0 | 0 | 0 | 0 | 0 | 0 | 0 | 0 | 0 | 0 | 0 | 0 | 0 | 0 | 0 | 0 | 0 | 0 |  |  |
| O=C(Nc1c[nH]nc1-c1nc2ccc(CN3CCOCC3)cc2[nH]1)NC1CC1 [AT9283] | 8.49 | 12.2 | 18.6 | 7.72 | 14 | 10 | 22.7 | 9.48 | 7.51 | 15.4 | 12.4 | 16.4 | 13.2 | 8.22 | 17.4 | 22.4 | 12.4 | 17.5 | 5.15 | 0 |
| COc1cc(CCc2cc(NC(=O)c3ccc(N4CC(C)NC(C)C4)cc3)n[nH]2)cc(OC)c1 (stereo unspecified) [AZD4547] | 0 | 0 | 0 | 2.37 | 2.97 | 3.12 | 3.06 | 0 | 6.62 | 0 | 0 | 0 | 0 | 0 | 5.67 | 0 | 15.1 | 0 | 3.61 | 0 |
| CCC/C=C/C=C/C(=O)O[C@H]1/C(=C/C(=O)OC)C[C@H]2C[C@H]([C@@H](C)O)OC(=O)C[C@H](O)C[C@@H]3C[C@H](OC(C)=O)C(C)(C)[C@](O)(C[C@@H]4C/C(=C/C(=O)OC)C[C@H](/C=C/C(C)(C)[C@]1(O)O2)O4)O3 [Bryostatin 1] | 0 | 0 | 0 | 16.1 | 0 | 7.23 | 0 | 6.66 | 16.1 | 0 | 0 | 0 | 0 | 0 | 0 | 0 | 0 | 4.97 | 0 | 0 |
| CO[C@@H](C(=O)N1Cc2[nH]nc(NC(=O)c3ccc(N4CCN(C)CC4)cc3)c2C1)c1ccccc1 [Danusertib] | 0 | 9.37 | 10.5 | 13.2 | 13.4 | 10.7 | 14.2 | 8.76 | 6.9 | 10.8 | 14.3 | 11.3 | 11 | 4.87 | 18.4 | 15.5 | 0 | 0 | 6.46 | 0 |
| Cc1nc(Nc2ncc(C(=O)Nc3c(C)cccc3Cl)s2)cc(N2CCN(CCO)CC2)n1 [Dasatinib] | 0 | 8.07 and 9.99 | 11.2 and 13.7 | 0 | 12.4 and 11.1 | 8.12 and 9 | 0 | 6.83 and 7.93 | 0 | 0 | 19.3 and 21.9 | 10.6 and 12.3 | 9.89 and 15.2 | 7.53 and 9.46 | 0 | 0 | 2.5 and 1.76 | 0 | 8.55 | 6.2 |
| O=S(=O)(c1cccc2cnccc12)N1CCCNCC1 [Fasudil] | 0 | 0 | 0 | 0 | 0 | 0 | 0 | 0 | 0 | 0 | 0 | 0 | 0 | 0 | 0.912 | 0 | 1.41 | 0 | 0 | 0 |
| CS(=O)(=O)N1CCN(Cc2cc3nc(-c4cccc5[nH]ncc45)nc(N4CCOCC4)c3s2)CC1 [GDC-0941] | 11.8 | 9.12 | 10.5 | 11.3 | 13.9 | 9.93 | 2.84 | 9.14 | 11.7 | 8.92 | 18.3 | 8.67 | 8.4 | 7.33 | 18.5 | 8.93 | 12.7 | 19.4 |  |  |
| Cc1c(CN2CCN(C(=O)[C@H](C)O)CC2)sc2c(N3CCOCC3)nc(-c3cnc(N)nc3)nc12 [GDC-0980] | 15.6 | 14.7 | 17.5 | 17.2 | 18.9 | 14.8 | 12.6 | 15.9 | 15.1 | 14.1 | 19.2 | 15.4 | 18.5 | 10.4 | 22.8 | 12.3 | 19.2 | 22.4 | 10.9 | 6.52 |
| Nc1cccc2c1CN(C1CCC(=O)NC1=O)C2=O (stereo unspecified) [Lenalidomide] | 0 | 0 | 0 | 0 | 0 | 0 | 0 | 0 | 0 | 0 | 0 | 0 | 0 | 0 | 0 | 0 | 0 | 0 | 2.82e-05 | 0 |
| C[C@]12O[C@H](C[C@]1(O)CO)n1c3ccccc3c3c4c(c5c6ccccc6n2c5c31)CNC4=O [Lestaurtinib] | 0 | 1.24 | 7.43 | 0 | 2.4 | 3.82 | 8.26 | 3.46 | 2.58 | 7.15 | 0 | 0 | 0 | 3.43 | 6.19 | 0 | 5.87 | 1.47 | 7.69 | 2.31 |
| O=C1c2c(O)ccc(O)c2C(=O)c2c(NCCNCCO)ccc(NCCNCCO)c21 [Mitoxantrone] | 6.48 | 4.76 | 9.16 | 17.4 | 17.6 | 5.25 | 22.7 | 6.5 | 4.36 | 23.1 | 8.81 | 4.05 | 11.8 | 3.16 | 4.9 | 9.75 | 2.58 | 15.3 | 0 | 0 |
| Nc1ccccc1NC(=O)c1ccc(CNc2nccc(-c3cccnc3)n2)cc1 [Mocetinostat] | 2.91 | 7.6 | 13.4 | 8.31 | 5.94 | 8.63 | 12.9 | 6.77 | 10.1 | 7.41 | 2.86 | 6.43 | 6.93 | 9.06 | 12.8 | 7.64 | 3.47 | 10.9 | 6.33 | 6.31 |
| CNC(=O)c1cc(Oc2ccc(NC(=O)Nc3ccc(Cl)c(C(F)(F)F)c3)cc2)ccn1 [Sorafenib] | 0 |  | 0 | 0 | 0 |  | 0 | 0 | 0 | 0 | 0 | 0 | 0 | 0 | 0 | 0 |  | 0 | 0 | 0 |
| CCN(CC)CCNC(=O)c1c(C)[nH]c(/C=C2\C(=O)Nc3ccc(F)cc32)c1C [Sunitinib] | 0 | 0 | 0 | 0 | 0 | 0 | 0 | 0 | 0 | 0 |  | 0 | 0 | 0 | 0 | 0 | 0 | 0 | 0 | 0 |
